Source: ChEMBL document CHEMBL1201862, “PubChem BioAssay data set” (2004)
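Grown in 96-well plates, cells were treated for 48 hours with each compound at five concentrations. Insufficient inhibition: endpoint recorded as highest concentration tested. GI50: concentration for 50% inhibition of growth.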 Calls of active or inactive are those of the source. No stated cut-off is given here; in the data, active = GI50 up to about 1.1 µM and inactive = higher.

Key:
Experiment in all cases: NCI-60 cell line screen, 48 h
CCRF-CEM = test system: CCRF-CEM
HCC 2998 = test system: HCC 2998
HCT-116 = test system: HCT-116
HOP-92 = test system: HOP-92
HT-29 = test system: HT-29
M14 = test system: M14
Malme-3M = test system: Malme-3M
SF-539 = test system: SF-539
SK-OV-3 = test system: SK-OV-3
SW-620 = test system: SW-620
UACC-62 = test system: UACC-62
UO-31 = test system: UO-31
COLO 205 = test system: COLO 205
SNB-19 = test system: SNB-19

Row | Structure (SMILES) | GI50 (CCRF-CEM) | GI50 (HCC 2998) | GI50 (HCT-116) | GI50 (HOP-92) | GI50 (HT-29) | GI50 (M14) | GI50 (Malme-3M) | GI50 (SF-539) | GI50 (SK-OV-3) | GI50 (SW-620) | GI50 (UACC-62) | GI50 (UO-31) | GI50 (COLO 205) | GI50 (SNB-19)
1 | COc1cc2c(c(O)c1C)C(=O)CC(c1ccccc1)O2 (stereo not drawn) | > 10 µM (inactive) | 79.8 µM (inactive) | 31.7 µM (inactive) | 13.4 µM (inactive) | > 10 µM (inactive) | > 10 µM (inactive) | 91.4 µM (inactive) | > 100 µM (inactive) | 36.2 µM (inactive) | > 10 µM (inactive) | 47.9 µM (inactive) | 23 µM (inactive) |  | 
2 | O=C(O)C1=C(Cl)c2ccccc2S1(=O)=O | > 100 µM (inactive) | > 100 µM (inactive) |  | > 100 µM (inactive) |  | > 100 µM (inactive) | > 100 µM (inactive) |  | > 100 µM (inactive) | > 100 µM (inactive) | > 100 µM (inactive) | > 100 µM (inactive) | > 100 µM (inactive) | > 100 µM (inactive)
3 | N#CCCN(CCC#N)c1ccc(/C=C2\N=C(c3cc([N+](=O)[O-])ccc3Cl)OC2=O)cc1 |  | 21.6 µM (inactive) | > 100 µM (inactive) |  | > 100 µM (inactive) | 35.6 µM (inactive) | > 100 µM (inactive) | 40.3 µM (inactive) | > 100 µM (inactive) | 68.4 µM (inactive) | 62.4 µM (inactive) | > 100 µM (inactive) |  | 25.9 µM (inactive)
4 | O=C1C(C2=[N+]([O-])c3ccccc3C2=O)=[N+]([O-])c2ccccc21 | 19.3 µM (inactive) |  |  |  | 32.8 µM (inactive) | 16.6 µM (inactive) |  | 20.5 µM (inactive) | 53.2 µM (inactive) | 21.8 µM (inactive) | > 10 µM (inactive) | 43.1 µM (inactive) | 17.7 µM (inactive) | 46.7 µM (inactive)
5 | NC(=S)N/N=C/c1nccc2ccccc12 | 0.453 µM (active) | 0.664 µM (active) | 0.914 µM (active) | 2.74 µM (inactive) | 0.731 µM (active) | 0.482 µM (active) | 0.0337 µM (active) | 0.223 µM (active) | 0.594 µM (active) | 0.802 µM (active) | 0.281 µM (active) | 0.443 µM (active) | 0.957 µM (active) | 0.948 µM (active)
6 | COc1cc(Nc2nc3ccccc3nc2-c2cccs2)cc(OC)c1OC | 47.1 µM (inactive) | 36.4 µM (inactive) | 28.1 µM (inactive) | 13.9 µM (inactive) | 41.7 µM (inactive) |  | 67.9 µM (inactive) | 40.6 µM (inactive) | 40.2 µM (inactive) | 50.4 µM (inactive) | 36.2 µM (inactive) | > 10 µM (inactive) | > 10 µM (inactive) | 56.9 µM (inactive)
7 | C/C(=N\NC(N)=S)c1ccc(C)c(C)c1 | 28.1 µM (inactive) | 51.6 µM (inactive) | > 100 µM (inactive) | 93.3 µM (inactive) | 19.4 µM (inactive) | 41.7 µM (inactive) | 33.3 µM (inactive) | 19.9 µM (inactive) | 75.7 µM (inactive) | 52.8 µM (inactive) | 28.4 µM (inactive) | 52.1 µM (inactive) | 26.9 µM (inactive) | 
8 | COc1ccc(/C(=N\NC(=O)C(N)=O)C(c2ccc(OC)cc2)C2(O)C(=O)Nc3c(Cl)cccc32)cc1 (stereo not drawn) | 50.1 µM (inactive) | > 100 µM (inactive) | > 100 µM (inactive) | > 100 µM (inactive) | > 100 µM (inactive) | > 100 µM (inactive) | > 100 µM (inactive) |  |  | > 100 µM (inactive) | > 100 µM (inactive) | > 100 µM (inactive) | > 100 µM (inactive) | > 100 µM (inactive)
9 | CC1=Nc2ccccc2SC(c2c(Cl)cccc2Cl)C1 (stereo not drawn) | 0.304 µM (active) | 1.6 µM (inactive) | 0.225 µM (active) | 1.82 µM (inactive) | 0.397 µM (active) | 1.52 µM (inactive) | 1.61 µM (inactive) | 0.993 µM (active) | 2.45 µM (inactive) | 0.43 µM (active) | 1.25 µM (inactive) | 1.71 µM (inactive) | 1.58 µM (inactive) | 1.38 µM (inactive)
10 | Cc1cc(O)nc(NNC(C#N)c2ccco2)n1 (stereo not drawn) | > 100 µM (inactive) |  | > 100 µM (inactive) | > 100 µM (inactive) | > 100 µM (inactive) | > 100 µM (inactive) | > 100 µM (inactive) | > 100 µM (inactive) | > 100 µM (inactive) | > 100 µM (inactive) | > 100 µM (inactive) | > 100 µM (inactive) | > 100 µM (inactive) | 
11 | CC(=O)Oc1cc(OC(C)=O)c(OC(C)=O)c2c1CC1C(=O)C3(CCc4ccccc43)C(=O)C1C2 (stereo not drawn) | 10.7 µM (inactive) | 6.7 µM (inactive) |  | > 100 µM (inactive) | 20.7 µM (inactive) | > 100 µM (inactive) | 7.57 µM (inactive) |  | 32.1 µM (inactive) | 17.9 µM (inactive) | 14.5 µM (inactive) | 22.1 µM (inactive) | 19.6 µM (inactive) | 
